This is an account of results in ChEMBL document CHEMBL1268875, “Isoflavone derivatives inhibit NF-κB-dependent transcriptional activity” (Bioorg Med Chem Lett, 2010).

What all share (assay type): cell-based
In test [1] the test system is HCT-116. Put plainly: Inhibition of TNF-alpha-induced Nuclear factor-kappa-B dependent transcriptional activity in human HCT116 cells assessed normalized inhibitory ratio of at 10 uM for 12 hrs by NF-kappaB cis-acting luciferase reporter gene assay relative to untreated control.
The subject of test [2] is HCT-116. Put plainly: Inhibition of TNF-alpha-induced Nuclear factor-kappa-B-mediated XIAP expression in human HCT116 cells pretreated for 30 mins before stimulation with TNFalpha for 15 mins by RT-PCR.
Test [3] concerns HCT-116. Put plainly: Inhibition of TNF-alpha-induced Nuclear factor-kappa-B-mediated CIAP2 expression in human HCT116 cells pretreated for 30 mins before stimulation with TNFalpha for 15 mins by RT-PCR.
Test [4] deals with HCT-116. Briefly: Inhibition of TNF-alpha-induced Nuclear factor-kappa-B-mediated CXCL1 expression in human HCT116 cells pretreated for 30 mins before stimulation with TNFalpha for 15 mins by RT-PCR.
Test [5] has as its system HCT-116. Put plainly: Inhibition of TNF-alpha-induced nuclear translocation of Nuclear factor-kappa-B in human HCT116 cells pretreated for 30 mins before stimulation with TNFalpha for 30 mins by Western blot.

Activity calls are given as the source filed them. No cut-off for these calls is given here.

Take `COc1cc(OC)c2c(=O)c(-c3ccc(Br)cc3)coc2c1`: the Ratio in the test with HCT-116 [1] is 0.25.
Turning to `COc1cc(OC)c2c(=O)c(-c3cccc(Cl)c3)coc2c1`, the Ratio in the test with HCT-116 [1] amounted to 0.63.
`COc1cc(C)c2c(=O)c(-c3ccccc3)coc2c1`: the Ratio in the test on HCT-116 [1] is 0.67.
Still for that read-out and setting: then `COc1cc(O)c2c(=O)c(-c3ccc(O)cc3)coc2c1`, with 0.34.
For `COc1cc(OC)c2c(=O)c(-c3ccccc3Cl)coc2c1`, in the test on HCT-116 [1], the Ratio came out at 0.54.
For `COc1ccc(-c2coc3cc(O)c(OC)cc3c2=O)cc1`, in the test with HCT-116 [1], the Ratio was 2.37.
Regarding `COc1ccc(-c2coc3c(OC)c(OC)ccc3c2=O)cc1`, the Ratio with HCT-116 [1] was 0.95.
`COc1ccc2c(=O)c(-c3ccc(Cl)cc3)coc2c1C`: the Ratio in the test with HCT-116 [1] worked out at 0.63.
For the compound `COc1ccc2c(=O)c(-c3ccccc3)coc2c1`, the Ratio with HCT-116 [1] was determined as 0.36.
Still for that read-out and setting: the same measure for `Cc1c(O)ccc2c(=O)c(-c3ccc(Cl)cc3)coc12`: 1.04; for `COc1ccc(-c2coc3cc(OC)c(OC)cc3c2=O)cc1OC`: 0.4.
Turning to `COc1cc(OC)c2c(=O)c(-c3ccc(OC)c(OC)c3)coc2c1`, the inhibition result in the test on HCT-116 [2], in the test on HCT-116 [3], in the test with HCT-116 [4] and in the test on HCT-116 [5] was “Active” throughout. Further, the Ratio with HCT-116 [1] is 0.19.
Turning to `COc1cc2occ(-c3ccccc3Cl)c(=O)c2cc1Cl`, the Ratio in the test on HCT-116 [1] worked out at 0.54.
In the case of `Cc1c(O)ccc2c(=O)c(-c3ccccc3)coc12`, the Ratio in the test with HCT-116 [1] is 0.45.
As for `COc1ccc(-c2coc3cc(OC)c(Cl)cc3c2=O)cc1O`, the Ratio with HCT-116 [1] amounted to 0.54.
Consider `COc1ccc(-c2coc3cc(O)ccc3c2=O)cc1OC`, for which the Ratio with HCT-116 [1] was determined as 2.53.
With `COc1cc(OC)c2c(=O)c(-c3ccc(Cl)cc3)coc2c1`, the Ratio in the test on HCT-116 [1] came out at 0.61.
As for `COc1ccc2c(=O)c(-c3ccccc3)coc2c1C`, the Ratio in the test on HCT-116 [1] was 0.23.
For `COc1ccc2c(=O)c(-c3ccc(OC)c(OC)c3)coc2c1`, the Ratio in the test on HCT-116 [1] came out at 0.45.
Consider `Cc1cc2occ(-c3ccccc3)c(=O)c2cc1Cl`, for which, in the test with HCT-116 [1], the Ratio turned out to be 0.32.
The same measure, in the same setting: the same measure for `Cc1cc2occ(-c3ccc(Cl)cc3Cl)c(=O)c2cc1Cl`: 0.27; for `COc1ccc(-c2coc3c(C)c(OC)ccc3c2=O)cc1`: 0.62; for `O=c1c(-c2ccc(O)cc2)coc2c(O)c(O)ccc12`: 1.22.
